Test results from US10316131B2, “Hyperbranched polymer modified with isocyanate linker and mix of short and long chain alkyl polyether” (priority 2014, dated 2019).
One block for each compound: values may come before it.

Tests used:
[1] = Solubilization measurements with a highthroughput screening robot; assay type: physicochemical
Method: Solubilization measurements were carried out with a highthroughput screening robot. […] After the addition of stirring bars and 24 hours incubation time the samples were filtrated through polypropylene filters in order to separate dissolved active and its solid form. The amount of solubilized active was determined by UV/VIS spectroscopy.

[2] = tested on: Puccinia Recondata/Tritici; experiment: Greenhouse test of pesticidal activity on infected wheat, suspension concentrates SC1 and SC2; assay type: in vivo, Puccinia Recondata/Tritici on wheat variety Monopol
Method: An aqueous suspension concentrate (“SC1”) was prepared as in Application Example 1. The pesticidal activity was tested in greenhouse tests on wheat variety Monopol, which was infected with the fungi Puccinia Recondata/Tritici. The plants were treated with SC1 three days after the inoculation at a use rate of […] (200 l water/ha). The use rate of the polymers of the invention was kept constant at 250 g per ha.
The above greenhouse tests were also made with a suspension concenctrate “SC2” of the triazole fungicide 2-[4-(4-chlorophenoxy)-2-(trifluoromethyl)phenyl]-1-(1H-1,2,4-triazol-1-yl)propan-2-ol (“triazole fungicide”) (100 g/ha) instead of fluxapyroxad.

[3] = 10 mg solid active in 3 wt % polymer solution in CIPAC water D, 24 hours, listed as of the active = no polymer

Structure (SMILES): N#Cc1nn(-c2c(Cl)cc(C(F)(F)F)cc2Cl)c(N)c1[S+]([O-])C(F)(F)F (centres unmarked) [fipronil]
Solubility of fipronil [1]: 12 pmm

Solubility of carbamazepine [1, 3]: 181 pmm
Structure (SMILES): NC(=O)N1c2ccccc2C=Cc2ccccc21 [carbamazepine]

Structure (SMILES): CC(O)(Cn1cncn1)c1ccc(Oc2ccc(Cl)cc2)cc1C(F)(F)F (centres unmarked) [triazole fungicide, 2-[4-(4-chlorophenoxy)-2-(trifluoromethyl)phenyl]-1-(1H-1,2,4-triazol-1-yl)propan-2-ol]
% infected leaf area, use rate of active 100% ([2]; triazole fungicide SC2 (100 g/ha) instead of fluxapyroxad): 83% | % infected leaf area, use rate of active 33% ([2]; triazole fungicide SC2 instead of fluxapyroxad, 33% use rate): 91% | Solubility of the triazole fungicide [1, 3]: 15 pmm

Structure (SMILES): Cn1cc(C(=O)Nc2ccccc2-c2cc(F)c(F)c(F)c2)c(C(F)F)n1 [fluxapyroxad]
% infected leaf area, use rate of active 33% ([2]; fluxapyroxad SC1, use rate 8.3 pesticide per ha, polymer 250 g per ha, treated three days after inoculation, 7 days after inoculation): 80% | % infected leaf area, use rate of active 100% ([2]; fluxapyroxad SC1, use rate 25 pesticide per ha, polymer 250 g per ha, treated three days after inoculation, 7 days after inoculation): 79% | Solubility of fluxapyroxad [1, 3]: 10 pmm
